Results on twelve molecules are retold here after ChEMBL document CHEMBL3397039, “Anti-inflammatory activity of phenolic compounds from the whole plant of Scutellaria indica” (Bioorg Med Chem Lett, 2015).

Data set [1] concerns RAW264.7. As to the kind of experiment: Anti-inflammatory activity in mouse RAW264.7 cells assessed as inhibition of LPS-induced nitric oxide production by Griess reaction based method. The class given is functional, cell-based. (Nitrite, measured by Griess reagent, commonly stands in for NO production.)
Data set [2] concerns RAW264.7. As to the kind of experiment: Toxicity against mouse RAW264.7 cells at 30 uM after 24 hrs in presence of LPS by MTT assay. The class given is cell-based. As to conditions: raw264.7, 24 h. On the technique in general: Tetrazolium dyes change colour on reduction, which living cells bring about.
Data set [3] deals with RAW264.7. As to the kind of experiment: Toxicity against mouse RAW264.7 cells at 30 uM after 24 hrs in absence of LPS by MTT assay. The class given is cell-based. The conditions noted are these: raw264.7, 24 h.
Data set [4] relates to RAW264.7. Nature of the data set: Inhibition of LPS-induced iNOS protein expression in mouse RAW264.7 cells by Western blotting method. The class given is functional, cell-based. For orientation: Immunoblotting shows a protein as a band on a membrane.
Data set [5] has as its system RAW264.7. As to the kind of experiment: Effect on alpha-tubulin protein expression in mouse RAW264.7 cells up to 30 uM by Western blotting method. The class given is ADME, cell-based.

For orientation: IC50 means the concentration at which inhibition is half-maximal.

In the case of `COC(=O)[C@H]1O[C@@H](Oc2cc(O)c3c(c2OC)O[C@H](c2cccc(OC)c2)CC3=O)[C@H](O)[C@@H](O)[C@@H]1O`, the IC50 in data set [1] is over 30 µM. Also, the Activity result in data set [2] and in data set [3] was “Non-toxic” throughout.
Turning to `COC(=O)[C@H]1O[C@@H](Oc2ccccc2[C@@H]2CC(=O)c3c(O)cc(OC)c(OC)c3O2)[C@H](O)[C@@H](O)[C@@H]1O`, the IC50 in data set [1] is over 30 µM. For the same molecule, the Activity result in data set [2] and in data set [3] was “Non-toxic” in each case.
Turning to `COc1c(O)cc(O)c2c(=O)cc(-c3ccc(O)cc3)oc12` [4'-HYDROXYWOGONIN], the half-maximal inhibitory concentration (IC50) in data set [1] amounted to 12.5 µM. The Activity result in data set [2] and in data set [3] was “Non-toxic” each time.
For `COc1ccc([C@@H]2CC(=O)c3c(O)c(OC)c(OC)c(OC)c3O2)cc1`, in data set [1], the 50% inhibitory concentration (IC50) stood at 27.8 µM. Besides, the Activity result in data set [2] and in data set [3] was “Non-toxic” throughout.
Turning to `COC(=O)[C@H]1O[C@@H](Oc2c(O)cc(O)c3c(=O)cc(-c4ccccc4)oc23)[C@H](O)[C@@H](O)[C@@H]1O`, in data set [1], the IC50 is over 30 µM. Further, the Activity entry in data set [2] and in data set [3] was “Non-toxic” throughout.
`O=C(O)[C@H]1O[C@@H](Oc2c(O)cc(O)c3c(=O)cc(-c4ccccc4)oc23)[C@H](O)[C@@H](O)[C@@H]1O`: the IC50 in data set [1] was over 30 µM. In addition, the Activity result in data set [2] and in data set [3] was “Non-toxic” throughout.
For `COc1cc(O)c2c(c1OC)O[C@H](c1cc(O)ccc1O[C@@H]1O[C@H](CO)[C@@H](O)[C@H](OC(=O)c3ccc(O)cc3)[C@H]1O)CC2=O`, the IC50 in data set [1] was over 30 µM. Moreover, the Activity entry in data set [2] and in data set [3] was “Non-toxic” each time.
Take `COc1c(O[C@@H]2O[C@H](C(=O)O)[C@@H](O)[C@H](O)[C@H]2O)cc(O)c2c1O[C@H](c1ccccc1O)CC2=O`: the IC50 in data set [1] was over 30 µM. Also, the Activity result in data set [2] and in data set [3] was “Non-toxic” each time.
`COc1cc(O)c2c(c1OC)O[C@H](c1c(O)cccc1O[C@@H]1O[C@H](CO)[C@@H](O)[C@H](O)[C@H]1O)CC2=O`: the IC50 in data set [1] is over 30 µM. For the same molecule, the Activity result in data set [2] and in data set [3] was “Non-toxic” in each case.
Turning to `O=c1cc(-c2ccc(O)c(O)c2)oc2cc(O)cc(O)c12` [LUTEOLIN], in data set [1], the IC50 came out at 7.2 µM. Further, the Activity entry in data set [2], in data set [3] and in data set [5] was “Non-toxic” throughout. In addition, in data set [4], the inhibition result was “Dose-dependent effect”.
As to `COc1ccccc1[C@@H]1CC(=O)c2c(O)cc(O[C@@H]3O[C@H](CO)[C@@H](O)[C@H](O)[C@H]3O)c(OC)c2O1`, in data set [1], the IC50 is over 30 µM. In addition, the Activity entry in data set [2] and in data set [3] was “Non-toxic” in each case.
As for `COc1cc(O)c2c(c1OC)O[C@H](c1cc(O)ccc1O[C@@H]1O[C@H](COC(C)=O)[C@@H](O)[C@H](O)[C@H]1O)CC2=O`, in data set [1], the IC50 is over 30 µM. For the same molecule, the Activity entry in data set [2] and in data set [3] was “Non-toxic” each time.
